Data taken from patent US11970448B2, “Monomers capable of dimerizing in an aqueous solution, and methods of using same” (CORNELL UNIVERSITY, priority 2011, dated 2024).
Structures can show the parent of a compound that is named as a salt.

Each compound was assayed against T1, recominbant human tryptase, beta, from lung (Homo sapiens, UniProt P20231) (assay: Inhibition of tryptase activity by monomers and multimers (Boc-Gln-Ala-Arg-AMC fluorescence)). Details: monomers against tryptase, Table 5; read-out: Monomer IC50 range.
T1 construct: purchased Promega or Enzo Life Sciences G5631 or BML-SE418
Assay type: biochemical
Experimental: Stock solutions of recominbant human tryptase, beta, from lung (Promega: catalog number G5631, or Enzo Life Sciences: catalog number BML-SE418) were made at 30 μM, in solution with 5 μM heparin sulfate and 1 M NaCl. Monomer tryptase inhibitor stock solutions were made at 50 mM in DMSO. Test substance plates were made at 1.2× the final concentration in assay buffer (50 mM HEPES, 150 mM NaCl, 100 μM EDTA, pH 7.4, 0.02% Tween-20). A final concentration of 1 nM tryptase was used. When required, test substances were diluted in water immediately before use in 10-fold serial dilutions. After the indicated incubation time, the test subtance-tryptase solution at 1.2× concentration, was diluted into assay buffer containing a final concentration of 200 μM N-tert-butoxycarbonyl-Gln-Ala-Arg-AMC HBr [AMC=7-amino-4-methylcoumarin] (Boc-Gln-Ala-Arg-AMC; Enzo Life Sciences: catalog number BML-P237) to a final volume of 50 μl in black opaque round bottom 96 well plates (Corning, catalog number 3792). The release of fluorescent AMC was immediately measured every 30 seconds over 15-30 minutes at an excitation wavelength of 367 nm, monitoring emission at 468 nm on a Spectramax M5 (Molecular Devices) microplate reader. The Softmax Pro (Molecular Devices) and Graphpad prism software were used to determine Vmax, and concentration-response curve IC50s, respectively.

T1 sequence (P20231 31-275): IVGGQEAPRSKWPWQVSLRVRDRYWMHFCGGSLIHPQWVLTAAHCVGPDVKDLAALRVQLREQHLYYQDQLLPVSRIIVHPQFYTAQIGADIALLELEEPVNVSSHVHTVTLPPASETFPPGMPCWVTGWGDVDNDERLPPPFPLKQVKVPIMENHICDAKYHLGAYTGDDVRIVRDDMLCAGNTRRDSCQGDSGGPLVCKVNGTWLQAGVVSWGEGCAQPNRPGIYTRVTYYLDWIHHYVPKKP

Row | SMILES | IC50 [µM]
1 | NCc1ccc(C(=O)NCc2ccc(OCC(=O)N3C[C@H](O)[C@@H](O)C3)cc2)cc1 [CF1, 4-(aminomethyl)-N-(4-(2-((3S,4S)-3,4-dihydroxypyrrolidin-1-yl)-2-oxoethoxy)benzyl)benzamide hydrochloride] | 10 to 65
2 | NCc1cccc(C2CCN(C(=O)c3ccc(Cl)c(Cl)c3)CC2)c1 [CF5, (4-(3-(aminomethyl)phenyl)piperidin-1-yl)(3,4-dichlorophenyl)methanone] | 0.0001 to 1
3 | NCc1ccc(C(=O)NCc2ccc(OCC(=O)N3C[C@@H](O)[C@H](O)C3)cc2)cc1 [CF6, 4-(aminomethyl)-N-(4-(2-((3R,4R)-3,4-dihydroxypyrrolidin-1-yl)-2-oxoethoxy)benzyl)benzamide hydrochloride] | 10 to 65
4 | NCc1ccc(C(=O)NCc2ccc(OCC(=O)N3CC(=O)[C@H](O)C3)cc2)cc1 [CF7, (R)-4-(aminomethyl)-N-(4-(2-(3-hydroxy-4-oxopyrrolidin-1-yl)-2-oxoethoxy)benzyl)benzamide hydrochloride] | 1 to 10
5 | NCc1ccc(C(=O)NCc2ccc(OCCC(=O)N3CC(=O)[C@@H](O)C3)cc2)cc1 [CF10, (S)-4-(aminomethyl)-N-(4-(3-(3-hydroxy-4-oxopyrrolidin-1-yl)-3-oxopropoxy)benzyl)benzamide hydrochloride] | 10 to 65
6 | NCc1ccc(C(=O)NCc2ccc(OCCC(=O)N3CC(=O)[C@H](O)C3)cc2)cc1 [CF12, (R)-4-(aminomethyl)-N-(4-(3-(3-hydroxy-4-oxopyrrolidin-1-yl)-3-oxopropoxy)benzyl)benzamide hydrochloride] | 1 to 10

Same assay, conditions: monomers against tryptase; read-out: IC50 range group of additional monomers (boronic acid, benzooxaborole, ligands)

Row | SMILES | IC50 [µM]
7 | NCc1cccc(C2CCN(C(=O)c3cccc(NC(=O)C4CC5CC4C(O)C5O)c3)CC2)c1 (racemic) [T139RACEENDO, (±) endo-N-(3-(4-(3-(aminomethyl)phenyl)piperidine-1-carbonyl)phenyl)-5,6-syn-dihydroxybicyclo[2.2.1]heptane-2-carboxamide] | 1 to 10
8 | NCc1cccc(C2CCN(C(=O)C3CC4CC3C(O)C4O)CC2)c1 (racemic) [T140RACEENDO, (±) endo (4-(3-(aminomethyl)phenyl)piperidin-1-yl)-(5,6-syn-dihydroxybicyclo[2.2.1]heptan-2-yl)methanone] | 1 to 10
9 | NCc1cccc(C2CCN(C(=O)c3cccc(NC(=O)C4CC5CCC4C(O)C5O)c3)CC2)c1 (racemic) [T141ENDOANTI, (±) endo-N-(3-(4-(3-(aminomethyl)phenyl)piperidine-1-carbonyl)phenyl)-5,6-anti-dihydroxybicyclo[2.2.2]octane-2-carboxemide.] | 0.0001 to 1
10 | NCc1cccc(C2CCN(C(=O)c3cccc(NC(=O)C4CC5CCC4C(O)C5O)c3)CC2)c1 (racemic) [T141EXOANTI, (±) exo-N-(3-(4-(3-(aminomethyl)phenyl)piperidine-1-carbonyl)phenyl)-5,6-anti-dihydroxybicyclo[2.2.2]octane-2-carboxamide.] | 1 to 10
11 | NCc1cccc(C2CCN(C(=O)c3cccc(NC(=O)C4CC5CCC4C(O)C5O)c3)CC2)c1 (racemic) [T141EXOSYN, (±) exo-N-(3-(4-(3-(aminomethyl)phenyl)piperidine-1-carbonyl)phenyl)-5,6-syn-dihydroxybicyclo[2.2.2]octane-2-carboxamide.] | 1 to 10
12 | NCc1cccc(C2CCN(C(=O)C3CC4CCC3C(O)C4O)CC2)c1 (racemic) [T142ENDOANTI, (±) endo (4-(3-(aminomethyl)phenyl)piperidin-1-yl)(-5,6-anti-dihydroxybicyclo[2.2.2]octan-2-yl)methanone] | 0.0001 to 1
13 | NCc1cccc(C2CCN(C(=O)C3CC4CCC3C(O)C4O)CC2)c1 (racemic) [T142ENDOSYN, (±) endo (4-(3 (aminomethyl)phenyl)piperidin-1-yl)(-5,6-syn-dihydroxybicyclo[2.2.2]octan-2-yl)methanone] | 10 to 65
14 | NCc1cccc(C2CCN(C(=O)C3CC4CCC3C(O)C4O)CC2)c1 (racemic) [T142EXOANTI, (±) endo (4-(3 (aminomethyl)phenyl)piperidin-1-yl)(-5,6-anti-dihydroxybicyclo[2.2.2]octan-2-yl)methanone] | 10 to 65
